Results: ChEMBL document CHEMBL1145167, “Design and synthesis of 4-(alpha-hydroxymalonyl)phenylalanine as a new phosphotyrosyl mimetic and its use in growth factor receptor bound 2 src-homology 2 (Grb2 SH2) domain-binding peptides” (J Med Chem, 2005)
pIC50: −log10 of the molar value.

Columns and labels:
[1] = target: T1, Growth factor receptor-bound protein 2 (Homo sapiens, UniProt P62993); assay: Steady-state affinity constant for Grb2 SH2 domain binding by surface plasmon resonance
Target sequence in this assay (P62993 whole entry, looked up, the tested form may be a part): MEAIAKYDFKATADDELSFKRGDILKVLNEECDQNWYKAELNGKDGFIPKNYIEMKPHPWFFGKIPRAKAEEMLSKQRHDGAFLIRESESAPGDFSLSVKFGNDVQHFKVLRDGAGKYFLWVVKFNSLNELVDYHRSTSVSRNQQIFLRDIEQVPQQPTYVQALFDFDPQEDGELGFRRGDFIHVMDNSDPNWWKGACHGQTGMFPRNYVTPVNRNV

[2] = target: T1, Growth factor receptor-bound protein 2; assay: Inhibition of Grb2 SH2 domain binding in ELISA
Target sequence in this assay (P62993 whole entry, the tested form may be a part): as the sequence (P62993 whole entry, looked up, the tested form may be a part) above

| SMILES | Keq [1] | pIC50 [2] |
| --- | --- | --- |
| NC(=O)C[C@H](NC(=O)C1(NC(=O)[C@H](Cc2ccc(C(O)(C(=O)O)C(=O)O)cc2)NC(=O)C(=O)O)CCCCC1)C(=O)NCCCc1cccc2ccccc12 | 0.27 µM | – |
| NC(=O)C[C@H](NC(=O)C1(NC(=O)[C@H](Cc2ccc(C(O)C(=O)O)cc2)NC(=O)C(=O)O)CCCCC1)C(=O)NCCCc1cccc2ccccc12 (stereo partly specified) | 1.54 µM | – |
| NC(=O)C[C@H](NC(=O)C1(NC(=O)[C@H](Cc2ccc(C(C(=O)O)C(=O)O)cc2)NC(=O)C(=O)O)CCCCC1)C(=O)NCCCc1cccc2ccccc12 | 0.149 µM | – |
| NC(=O)C[C@H](NC(=O)C1(NC(=O)[C@H](Cc2ccc(CC(=O)O)cc2)NC(=O)C(=O)O)CCCCC1)C(=O)NCCCc1cccc2ccccc12 | 6.11 µM | – |
| CC(=O)N[C@@H](Cc1ccc(OP(=O)(O)O)cc1)C(=O)NC1(C(=O)N[C@@H](CC(N)=O)C(=O)NCCCc2cccc3ccccc23)CCCCC1 | 0.24 µM | 7.33 |
